pIC50: −log10 of the molar value. Structures can show the parent of a compound that is named as a salt. Where two headings read alike, the source gives them in different places.
What was measured:
BCRP [1] = target: T1, BCRP (Homo sapiens, UniProt Q9UNQ0); assay: BCRP-mediated methotrexate transport in membrane vesicles of BCRP-expressing Sf9 cells; details: for inhibitory action on BCRP-mediated methotrexate transport: at concentration of 100 μmol/L
T1 sequence (Q9UNQ0 1-655): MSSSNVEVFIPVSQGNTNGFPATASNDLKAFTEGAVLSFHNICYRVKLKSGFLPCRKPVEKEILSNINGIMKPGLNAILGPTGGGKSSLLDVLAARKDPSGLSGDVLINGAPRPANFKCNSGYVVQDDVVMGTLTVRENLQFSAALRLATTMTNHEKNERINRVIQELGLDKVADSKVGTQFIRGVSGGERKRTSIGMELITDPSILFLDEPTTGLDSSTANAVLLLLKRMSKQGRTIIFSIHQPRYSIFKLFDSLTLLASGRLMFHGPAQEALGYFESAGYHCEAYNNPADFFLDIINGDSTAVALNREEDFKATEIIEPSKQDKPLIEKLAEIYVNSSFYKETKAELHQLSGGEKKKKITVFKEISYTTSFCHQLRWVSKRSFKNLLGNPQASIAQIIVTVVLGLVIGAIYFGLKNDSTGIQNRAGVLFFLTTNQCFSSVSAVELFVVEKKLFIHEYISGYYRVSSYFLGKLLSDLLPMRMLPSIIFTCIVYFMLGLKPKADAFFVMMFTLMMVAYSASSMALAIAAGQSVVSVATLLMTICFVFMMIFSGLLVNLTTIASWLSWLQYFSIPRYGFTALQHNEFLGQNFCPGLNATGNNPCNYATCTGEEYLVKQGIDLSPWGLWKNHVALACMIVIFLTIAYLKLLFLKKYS
Procedure: (§1) In the experiment, plasma membrane was prepared from BCRP-expressing Sf9 cells.
(§2) The activity of methotrexate transport was measured using 96 wells-plate according to the following method.
(§3) Preparation and Composition of Reaction Solution
(§4) 50 μL of solution containing sucrose (250 mmol/L) and Tris/Hepes (10 mmol/L, pH: 7.4)
(§5) 30 μL of solution containing ATP (3.33 mmol/L), creatine phosphate (33.3 mmol/L), and MgCl2 (33.3 mmol/L)
(§6) (or solution containing creatine phosphate (33.3 mmol/L) and MgCl2 (33.3 mmol/L))
5 μL of creatine kinase (2 mg/mL)
(§7) 2 μL of [^3H]methotrexate (10 mmol/L, final concentration: 200 μmol/L)
(§8) 10 μL of membrane sample of BCRP-expressing Sf9 cells (total protein: 50 μg)
(§9) The reaction solution was incubated at 37° C. for 20 minutes. 1 mL of ice-cooled solution containing sucrose (250 mmol/L), EDTA (2 mmol/L), and Tris/Hepes (10 mmol/L, pH: 7.4) was quickly added to the reaction solution to stop the reaction. Each 270 μL of the mixed solution was poured into each well of MultiScreen™ (Millipore), and sucked. The wells were washed four times with 200 μL of ice-cooled solution containing sucrose (250 mmol/L) and Tris/Hepes (10 mmol/L, pH: 7.4). The radioactivity trapped on a filter of each well was measured. The amount of methotrexate transported into the membrane vesicle was calculated from the radioactivity.

[2] = system: BCRP-overexpressing cells (Flp-In-293/BCRP); assay: Influence on anti-cancer agent (SN-38) resistance in BCRP-overexpressing cells, MTT assay; assay type: cell-based; details: Flp-In-293/ABCG2 cells; for degree of reversing resistance to SN-38: at the concentration of 5 μmol/L, 72 hours
BCRP [3] = target: T1, BCRP
Procedure: as §1, §2, §3, §4, §5, §6
5 μL of creatine kinase (2 mg/mL)
as §7, §8, §9

Flp-In-293/ABCG2 cells = assay: Toxicity to the cells (viability, MTT assay); details: at or up to the concentration of 10 μmol/L

pIC50 (BCRP [1])	SMILES	effect of overcoming resistance to SN-38 (in words) [2]	degree of reversing resistance to SN-38 [2]	toxicity to the cells / effect on viability (Flp-In-293/ABCG2 cells)	further results
5.96	N#Cc1cc(-c2nc3cncnc3s2)ccc1Oc1ccc(F)cc1 [Compound 2, 2-[3-cyano-4-(4-fluorophenoxy)phenyl]thiazolo[5,4-d]pyrimidine]	reversed the resistance of Flp-In-293/ABCG2 cells to SN-38 in a concentration-dependent manner	about 90%		
	N#Cc1cc(-c2nc3c(O)ncnc3s2)ccc1Oc1ccccc1 [Compound 3, potassium salt of 2-(3-cyano-4-phenoxyphenyl)-4-hydroxythiazolo[5,4-d]pyrimidine]				pIC50 (BCRP [3]): 6.64
	Oc1ncnc2[nH]ncc12 [allopurinol]	did not exhibit an effect of overcoming resistance to SN-38		did not exhibit toxicity to the cells	inhibitory action on BCRP-mediated methotrexate transport (BCRP [1]): did not exhibit an inhibitory action
	CC(C)(C)COc1ccc(-n2cc(C(=O)O)cn2)cc1C#N [Compound Y-700, 1-[3-cyano-4-(2,2-dimethylpropoxy)phenyl]-1H-pyrazole-4-carboxylic acid]	did not exhibit an effect of overcoming the resistance in the concentration not exhibiting toxicity to the cells			
	O=c1[nH]c(=O)c2c[nH]nc2[nH]1 [oxypurinol]	did not exhibit an effect of overcoming resistance to SN-38			inhibitory action on BCRP-mediated methotrexate transport (BCRP [1]): did not exhibit an inhibitory action
	N#Cc1cc(-c2nc3c(O)ncnc3s2)ccc1Oc1ccccc1 [Compound 5, 2-(3-cyano-4-phenoxyphenyl)-4-hydroxythiazolo[5,4-d]pyrimidine]		about 96%	did not exhibit toxicity to the cells	
6.18	N#Cc1cc(-c2nc3cncnc3s2)ccc1Oc1ccccc1 [Compound 4, 2-(3-cyano-4-phenoxyphenyl)thiazolo[5,4-d]pyrimidine]				
	N#Cc1cc(-c2nc3c([O-])ncnc3s2)ccc1Oc1ccc(F)cc1.[K+] [Compound 1, potassium salt of 2-[3-cyano-4-(4-fluorophenoxy)phenyl]-4-hydroxythiazolo[5,4-d]pyrimidine]	reversed the resistance of Flp-In-293/ABCG2 cells to SN-38 in a concentration-dependent manner	about 96%	did not affect viability	pIC50 (BCRP [1]; read-out: IC50 (concentration inhibiting methotrexate transport by 50%), [3H]methotrexate 200 μmol/L, 37° C., 20 minutes): 6.34
6.11	N#Cc1cc(-c2n[nH]c(-c3ccncc3)n2)ccn1 [FYX-051, 4-[5-pyridin-4-yl-1H-[1,2,4]triazol-3-yl]pyridine-2-carbonitrile]		about 39%		

SMILES	pIC50 (BCRP [1])	effect of overcoming resistance to SN-38 (in words) [2]	degree of reversing resistance to SN-38 [2]	toxicity to the cells / effect on viability (Flp-In-293/ABCG2 cells)	further results
Cc1nc(-c2ccc(OCC(C)C)c(C#N)c2)sc1C(=O)O [TMX-67, Febuxostat]	6.60		about 82%	did not exhibit toxicity to the cells	
